Assay results: ChEMBL document CHEMBL1649364, “Synthesis and antifungal activity of some substituted phenothiazines and related compounds” (2011)
Calls of active or inactive are those of the source. The rule behind the calls is not given here.

Tests used:
[1] = Antifungal activity against Cladophialophora carrionii by microdilution test; format: functional
[2] = tested on: Meyerozyma guilliermondii; experiment: Antifungal activity against Candida guilliermondii by diffusion test; format: functional, organism-based
[3] = Antifungal activity against Exophiala xenobiotica by diffusion test; format: functional
Candida parapsilosis [4] = experiment: Antifungal activity against Candida parapsilosis by microdilution test; format: functional
[5] = Antifungal activity against Exophiala xenobiotica by microdilution test; format: functional
Aspergillus flavus [6] = experiment: Antifungal activity against Aspergillus flavus by microdilution test; format: functional
[7] = Antifungal activity against Aspergillus fumigates by diffusion test; format: functional
Exophiala spinifera [8] = experiment: Antifungal activity against Exophiala spinifera by microdilution test; format: functional
Aspergillus niger [9] = experiment: Antifungal activity against Aspergillus niger by diffusion test; format: functional, organism-based
Cryptococcus neoformans [10] = experiment: Antifungal activity against Cryptococcus neoformans by diffusion test; format: functional, organism-based
[11] = Antifungal activity against Aspergillus fumigates by microdilution test; format: functional
Aspergillus niger [12] = experiment: Antifungal activity against Aspergillus niger by microdilution test; format: functional
Aspergillus terreus [13] = experiment: Antifungal activity against Aspergillus terreus by microdilution test; format: functional
Candida parapsilosis [14] = experiment: Antifungal activity against Candida parapsilosis by diffusion test; format: functional, organism-based
Pichia kudriavzevii [15] = experiment: Antifungal activity against Candida krusei by microdilution test; format: functional
Cryptococcus neoformans [16] = experiment: Antifungal activity against Cryptococcus neoformans by microdilution test; format: functional
[17] = tested on: Meyerozyma guilliermondii; experiment: Antifungal activity against Candida guilliermondii by microdilution test; format: functional
Aspergillus nidulans [18] = experiment: Antifungal activity against Aspergillus nidulans by diffusion test; format: functional, organism-based
Candida albicans [19] = experiment: Antifungal activity against Candida albicans by microdilution test; format: functional
[20] = Antifungal activity against Exophiala oligosperma by microdilution test; format: functional
[21] = Antifungal activity against Cladophialophora carrionii by diffusion test; format: functional
Exophiala spinifera [22] = experiment: Antifungal activity against Exophiala spinifera by diffusion test; format: functional, organism-based
Pichia kudriavzevii [23] = experiment: Antifungal activity against Candida krusei by diffusion test; format: functional, organism-based
Aspergillus flavus [24] = experiment: Antifungal activity against Aspergillus flavus by diffusion test; format: functional, organism-based
Nakaseomyces glabratus [25] = experiment: Antifungal activity against Candida glabrata by microdilution test; format: functional
Nakaseomyces glabratus [26] = experiment: Antifungal activity against Candida glabrata by diffusion test; format: functional, organism-based
Aspergillus nidulans [27] = experiment: Antifungal activity against Aspergillus nidulans by microdilution test; format: functional, organism-based
[28] = Antifungal activity against Exophiala oligosperma by diffusion test; format: functional
Aspergillus terreus [29] = experiment: Antifungal activity against Aspergillus terreus by diffusion test; format: functional, organism-based
Candida albicans [30] = experiment: Antifungal activity against Candida albicans by diffusion test; format: functional, organism-based

| Structure (SMILES) | Activity [1] | Activity (Candida parapsilosis [4]) | Activity [5] | Activity (Aspergillus flavus [6]) | Activity (Exophiala spinifera [8]) | Activity [11] | Activity (Aspergillus niger [12]) | Activity (Aspergillus terreus [13]) | Activity (Pichia kudriavzevii [15]) | Activity (Cryptococcus neoformans [16]) | Activity [17] | Activity (Candida albicans [19]) | Activity [20] | Activity (Nakaseomyces glabratus [25]) | Activity (Aspergillus nidulans [27]) | other results |
| --- | --- | --- | --- | --- | --- | --- | --- | --- | --- | --- | --- | --- | --- | --- | --- | --- |
| CN(C)S(=O)(=O)c1ccc2c(c1)Nc1ccccc1S2 | inactive | inactive | inactive | inactive | inactive | inactive | inactive | inactive | inactive | inactive | inactive | inactive | inactive | inactive | inactive | Activity [2]: Active; Activity [3]: Active; Activity [7]: Active; Activity (Aspergillus niger [9]): Active; Activity (Cryptococcus neoformans [10]): Active; Activity (Candida parapsilosis [14]): Active; Activity (Aspergillus nidulans [18]): Active; Activity [21]: Active; Activity (Exophiala spinifera [22]): Active; Activity (Pichia kudriavzevii [23]): Active; Activity (Aspergillus flavus [24]): Active; Activity (Nakaseomyces glabratus [26]): Active; Activity [28]: Active; Activity (Aspergillus terreus [29]): Active; Activity (Candida albicans [30]): Active |
| ClCCCN1c2ccccc2Sc2ccccc21 | inactive | inactive | inactive | inactive | inactive | inactive | inactive | inactive | inactive | inactive | inactive | inactive | inactive | inactive | inactive | – |
| O=C(CCl)n1c2ccccc2c2ccccc21 | inactive | inactive | inactive | inactive | inactive | inactive | inactive | inactive | inactive | inactive | inactive | inactive | inactive | inactive | inactive | – |
| CC(=O)N1c2ccccc2Sc2ccccc21 | inactive | inactive | inactive | inactive | inactive | inactive | inactive | inactive | inactive | inactive | inactive | inactive | inactive | inactive | inactive | – |
